How the values were obtained:
[1] = test system: SARS-CoV-2; format: cell-based
[2] = test system: Vero E6 cells; details: parallel plates

| Structure (SMILES) | effect on SARS-CoV-2 viral RNA in supernatants / replication (in words) [1] | compound cytotoxicity (in words) [2] | potency at 48 hpi compared with 24 hpi (in words) [1] | IC50 ([1]; read-out: IC50, SARS-CoV-2 viral RNA in supernatants) |
| --- | --- | --- | --- | --- |
| Cc1nc2ccc(Br)cc2c(-c2ccc(Cl)cc2)c1C(OC(C)(C)C)C(=O)O (centres unmarked) [ALLINI-2] | modestly inhibited | without apparent cytotoxicity | – | – |
| CCOC(=O)[C@H]1O[C@@H]1C(=O)N[C@@H](CC(C)C)C(=O)NCCC(C)C [E64D] | substantially decreased | minimal cytotoxicity | less potent | 3.3 µM |
| CC(C)CN(C[C@@H](O)[C@H](Cc1ccccc1)NC(=O)O[C@H]1CCOC1)S(=O)(=O)c1ccc(N)cc1 [amprenavir] | modestly inhibited | without apparent cytotoxicity | – | – |
| Cc1cccc(/C=N/Nc2cc(N3CCOCC3)nc(OCCc3ccccn3)n2)c1 [apilimod] | substantially decreased | minimal cytotoxicity | less potent | – |
| Cc1ccnc2c1NC(=O)c1cccnc1N2C1CC1 [nevirapine] | modestly inhibited | without apparent cytotoxicity | – | – |
| CCC(CC)COC(=O)[C@H](C)N[P@](=O)(OC[C@H]1O[C@@](C#N)(c2ccc3c(N)ncnn23)[C@H](O)[C@@H]1O)Oc1ccccc1 [remdesivir] | substantially decreased | – | – | – |

From article PMC7325174 (bioRxiv, 2020)
